Experimental data published in US20020161202A1, “Apo-2DcR” (Genentech, Inc., priority 1997, published 2002).
Blank lines part the entries; values can stand above or below the compound they belong to. Where a SMILES comes first, the peptide text is derived from it. [ ]: non-standard residue; d: D form. The star is where a group is joined. Nle = CCCC[C@H](N)C(=O)O; Cbz = O=C(OCc1ccccc1)*; CH2F = FC*

How the values were obtained:
HeLa cells [1] = test: Apo-2L-induced apoptosis in HeLa cells by FACS and its inhibition by soluble Apo-2 ECD; type: cell-based, human
Experimental: Soluble Apo-2L ([…], prepared as described in Pitti et al., supra) was pre-incubated for 1 hour at room temperature with PBS buffer or affinity-purified Apo-2 ECD (5 μg/ml) together with anti-Flag antibody (Sigma) (1 μg/ml) and added to HeLa cells. After a 5 hour incubation, the cells were analyzed for apoptosis by FACS (as above) (FIG. 11D).

NF-κB [2] = test: NF-κB activation in HeLa cells transfected with receptor plasmids (electrophoretic mobility shift assay); type: cell-based, human; conditions: harvested 24 hours after transfection, FIG. 12A
Experimental: HeLa cells were transfected with pRK5 expression plasmids encoding full-length native sequence Apo-2, DR4 or Apo-3 and harvested 24 hours after transfection. […] Immunol., 153:5274-5284 (1994)], alone or together with a 50-fold excess of unlabelled probe, or with an irrelevant ^32P-labelled synthetic oligonucleotide […] NO: 13). In some samples, antibody to p65/RelA subunits of NF-κB (1 μg/ml; Santa Cruz Biotechnology) was added. DNA binding was analyzed by an electrophoretic mobility shift assay as described by Hsu et al., supra; Marsters et al., supra, and MacKay et al., supra.

Human 293 cells = test: Induction of apoptosis by Apo-2 transfection, morphology and DNA fragmentation; type: cell-based; conditions: 24 hours after transfection; morphology, DNA fragmentation; FIGS. 11A and 11B
Source text: (§1) Because death domains can function as oligomerization interfaces, over-expression of receptors that contain death domains may lead to activation of signaling in the absence of ligand [Frazer et al., supra, Nagata et al., supra]. To determine whether Apo-2 was capable of inducing cell death, human 293 cells or HeLa cells (ATCC CCL 2.2) were transiently transfected by calcium phosphate precipitation (293 cells) or electroporation (HeLa cells) with a pRK5 vector or pRK5-based plasmids encoding Apo-2 and/or CrmA. When applicable, the total amount of plasmid DNA was adjusted by adding vector DNA. Apoptosis was assessed 24 hours after transfection by morphology (FIG. 11A); DNA fragmentation (FIG. 11B); or by FACS analysis of phosphatydilserine exposure (FIG. 11C) as described in Marsters et al., Curr. Biol., 6:1669 (1996).

Apo-2L = test: Co-precipitation assay of Apo-2 ECD-Flag with poly-histidine-tagged Apo-2L; type: binding; conditions: Apo-2 ECD-Flag supernatant with 5 μg poly-histidine-tagged soluble Apo-2L; FIG. 10
Apo-2L, sequence (P50591 39-281 limits assumed): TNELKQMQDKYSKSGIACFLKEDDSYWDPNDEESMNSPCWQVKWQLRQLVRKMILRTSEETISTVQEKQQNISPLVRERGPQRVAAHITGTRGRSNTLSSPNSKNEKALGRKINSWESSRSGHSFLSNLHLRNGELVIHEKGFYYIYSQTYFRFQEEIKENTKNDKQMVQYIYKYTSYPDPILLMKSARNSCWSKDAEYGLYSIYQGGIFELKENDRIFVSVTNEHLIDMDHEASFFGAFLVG
Apo-2L, sequence (O14763 56-184 partner limits assumed): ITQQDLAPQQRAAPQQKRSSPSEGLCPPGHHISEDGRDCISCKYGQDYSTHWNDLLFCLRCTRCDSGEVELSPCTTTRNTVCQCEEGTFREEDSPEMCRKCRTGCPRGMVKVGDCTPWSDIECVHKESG
Experimental: To determine whether Apo-2 and Apo-2L interact or associate with each other, supernatants from mock-transfected 293 cells or from 293 cells transfected with Apo-2 ECD-Flag (described in Example 6 above) (5 ml) were incubated with 5 μg poly-histidine-tagged soluble Apo-2L [Pitti et al., supra] for 30 minutes at room temperature and then analyzed for complex formation by a co-precipitation assay.
The samples were subjected to immunoprecipitation using 25 μl anti-Flag conjugated agarose beads (Sigma) or Nickel-conjugated agarose beads (Qiagen). After a 1.5 hour incubation at 4° C., the beads were spun down and washed four times in phosphate buffered saline (PBS). By using anti-Flag agarose, the Apo-2L was precipitated through the Flag-tagged Apo-2 ECD; by using Nickel-agarose, the Apo-2 ECD was precipitated through the His-tagged Apo-2L. The precipitated proteins were released by boiling the beads for 5 minutes in SDS-PAGE buffer, resolved by electrophoresis on 12% polyacrylamide gels, and then detected by immunoblot with anti-Apo-2L or anti-Flag antibody (2 μg/ml) as described in Marsters et al., J. Biol. Chem., (1997).

Fas/Apo-1 ligand = target: T1, Fas/Apo-1 ligand (Homo sapiens, UniProt P48023); test: BIACORE analysis of Apo-2 ECD; type: binding
T1 construct: purchased Alexis Biochemicals
T1 sequence (P48023 103-281 limits assumed): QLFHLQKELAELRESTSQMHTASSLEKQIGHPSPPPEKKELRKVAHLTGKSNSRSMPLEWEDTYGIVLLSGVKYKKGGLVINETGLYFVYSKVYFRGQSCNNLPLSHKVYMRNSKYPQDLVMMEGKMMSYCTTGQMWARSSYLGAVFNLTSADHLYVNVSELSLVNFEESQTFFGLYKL
Experimental: (§2) The binding interaction was further analyzed by purifying Apo-2 ECD from the transfected 293 cell supernatants with anti-Flag beads (see Example 6) and then analyzing the samples on a BIACORE™ instrument. The BIACORE™ analysis indicated a dissociation constant (Kd) of about 1 nM.

lymphotoxin-alpha = target: T2, lymphotoxin-alpha (Homo sapiens, UniProt P01374); test: BIACORE analysis of Apo-2 ECD; type: binding
T2 sequence (P01374 35-205): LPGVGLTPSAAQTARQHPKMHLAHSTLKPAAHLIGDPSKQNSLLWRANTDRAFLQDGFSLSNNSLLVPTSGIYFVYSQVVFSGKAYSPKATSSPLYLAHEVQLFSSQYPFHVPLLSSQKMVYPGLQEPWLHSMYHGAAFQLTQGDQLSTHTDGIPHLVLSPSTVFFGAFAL
Experimental: as §2

TNF-alpha = TNF-alpha (Homo sapiens, UniProt P01375); test: BIACORE analysis of Apo-2 ECD; type: binding
TNF-alpha, sequence (P01375 77-233 limits assumed): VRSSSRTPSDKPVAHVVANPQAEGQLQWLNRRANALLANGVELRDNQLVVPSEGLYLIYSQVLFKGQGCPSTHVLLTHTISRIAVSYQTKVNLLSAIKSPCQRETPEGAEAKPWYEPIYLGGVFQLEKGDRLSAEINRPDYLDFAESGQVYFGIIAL
Experimental: as §2

HeLa cells [3] = test: Effect of preincubation with inhibitors on Apo-2L-induced apoptosis in HeLa cells (FACS); type: cell-based, human; conditions: Apo-2L 1 μg/ml, 5 hour incubation, FIG. 12C
Experimental: The effects of a NF-κB inhibitor, ALLN (N-acetyl-Leu-Leu-norleucinal) and a […] inhibitor, cyclohexamide, were also tested. The HeLa cells (plated in 6-well dishes) were preincubated with PBS buffer, ALLN (Calbiochem) (40 μg/ml) or cyclohexamide (Sigma) (50 μg/ml) for 1 hour before addition of Apo-2L (1 μg/ml). After a 5 hour incubation, apoptosis was analyzed by FACS (see FIG. 12C).

HeLa cells [4] = test: Apoptosis induction by Apo-2 in transfected HeLa cells, FACS analysis of phosphatydilserine exposure; type: cell-based, human; conditions: inhibitor added at 200 μM at the time of transfection, FIG. 11C
Source text: as §1
For samples assayed by FACS, the HeLa cells were co-transfected with pRK5-CD4 as a marker for transfection and apoptosis was determined in CD4-expressing cells; FADD was co-transfected with the Apo-2 plasmid; the data are means±SEM of at least three experiments, as described in Marsters et al., Curr. Biol., 6:1669 (1996). The caspase inhibitors, DEVD-fmk (Enzyme Systems) or z-VAD-fmk (Research Biochemicals Intl.) were added at 200 μM at the time of transfection.

NF-κB [5] = test: NF-κB activity in HeLa cells treated with soluble ligand; type: cell-based, human; conditions: 1 μg/ml, FIG. 12B

- IC50 (HeLa cells [1]; dose-response analysis of inhibition of Apo-2L-induced apoptosis, HeLa cells, FIG. 11E, read-out: half-maximal inhibition): ~0.3 nM
Compound: Apo-2 ECD immunoadhesin: Apo-2 ECD (amino acids 1-184) fused to the hinge and Fc region of human immunoglobulin G1 heavy chain

Compound: DR4: TNF receptor family member with cytoplasmic death domain, receptor for Apo-2 ligand; expressed by transfection [reference compound]
- NF-κB activation upon transfection (NF-κB [2]): significant NF-κB activation

Compound: Apo-2: full-length native sequence human Apo-2, 411 amino acid type I transmembrane protein with death domain; expressed by transfection
- apoptosis of transfected 293 cells (Human 293 cells): marked apoptosis
- NF-κB activation upon transfection (NF-κB [2]): significant NF-κB activation

- binding to Fas/Apo-1 ligand (Fas/Apo-1 ligand): not capable of binding
- binding to TNF-alpha (TNF-alpha): not capable of binding
Compound: Apo-2 ECD: soluble Apo-2 extracellular domain (amino acid residues 1-184) fused to a C-terminal Flag epitope tag
- complex formation with Apo-2L (Apo-2L): can associate with each other
- binding to lymphotoxin-alpha (lymphotoxin-alpha): not capable of binding
- blocking of Apo-2L action (apoptosis) (HeLa cells [1]; Apo-2 ECD 5 μg/ml with anti-Flag antibody 1 μg/ml, pre-incubated 1 hour with Apo-2L 0.5 μ/ml, HeLa cells, FIG. 11D): capable of blocking Apo-2L action

Compound: C[C@@H]1C[C@@H]([C@H](O)CC2CC(=O)NC(=O)C2)C(=O)[C@@H](C)C1 [cyclohexamide]
- level of Apo-2L-induced apoptosis (HeLa cells [3]; HeLa cells preincubated 1 hour with cyclohexamide 50 μg/ml): increased

Compound: COC(=O)C[C@H](NC(=O)[C@H](C)NC(=O)[C@@H](NC(=O)OCc1ccccc1)C(C)C)C(=O)CF [z-VAD-fmk] (Cbz-Val-Ala-Asp(OMe)-CH2F)
- apoptosis induction by Apo-2 (HeLa cells [4]): blocked

Compound: CCCC[C@@H](C=O)NC(=O)[C@H](CC(C)C)NC(=O)[C@H](CC(C)C)NC(C)=O [ALLN, N-acetyl-Leu-Leu-norleucinal] (Ac-Leu-Leu-[Nle]-aldehyde)
- level of Apo-2L-induced apoptosis (HeLa cells [3]; HeLa cells preincubated 1 hour with ALLN 40 μg/ml): increased

Compound: COC(=O)CC[C@H](NC(=O)[C@H](CC(=O)OC)NC(=O)OCc1ccccc1)C(=O)N[C@H](C(=O)N[C@@H](CC(=O)OC)C(=O)CF)C(C)C [DEVD-fmk]
- apoptosis induction by Apo-2 (HeLa cells [4]): blocked

Compound: Apo-2L: Apo-2 ligand (also referred to as TRAIL), TNF family cytokine; soluble form as in Pitti et al.
- apoptosis in HeLa cells (HeLa cells [1]; soluble Apo-2L 0.5 μ/ml, 5 hour incubation, FACS, FIG. 11D): marked apoptosis
- NF-κB activation in treated HeLa cells (NF-κB [5]): significant NF-κB activation
